Drawing on ChEMBL document CHEMBL6087449, “Identification of an Isoxazole Derivative as an Antitubercular Compound for Targeting the FadD Enzymes of Mycobacterium tuberculosis” (J Med Chem, 2025), this text covers IC50, Activity and MIC for 4 molecules.

Assay [1] deals with Mycobacterium tuberculosis. The assay can be described thus: Antitubercular activity against Mycobacterium tuberculosis H37Rv assessed as inhibition of bacterial growth incubated for 5 days by Alamar Blue based assay. It counts as functional, organism-based. As to conditions: for IC50: 120 h. On the technique in general: The colour change of resazurin is a common sign of viable cells or microbes.

The subject of assay [2] is Mycobacterium tuberculosis. Nature of the assay: Antitubercular activity against Mycobacterium tuberculosis by alamar blue assay. It counts as functional.
The subject of assay [3] is Mycobacterium tuberculosis. Nature of the assay: Antitubercular activity against Mycobacterium tuberculosis H37Rv. It counts as functional.
In assay [4] the test system is Mycolicibacterium smegmatis. The assay can be described thus: Antimycobacterial activity against Mycobacterium smegmatis. The assay is classed as functional.

The structures appear in SMILES notation. ≈ marks a conversion by molar mass, not a printed value. Calls of active or inactive are those of the source.

As a reminder, the IC50 is the midpoint of a concentration-inhibition curve. Take `Cc1ccc(O)c(-c2cc(C(F)(F)C(F)F)no2)c1`: the half-inhibitory concentration (IC50) in assay [1] amounted to 12.8 µg/mL (≈ 46.5 µM). On the same count and under the same terms, to `COc1ccc(-c2onc(C(F)(F)F)c2-c2ccccc2)c(O)c1` belongs 21.7 µg/mL (≈ 64.7 µM). With `Oc1ccc(-c2onc(C(F)(F)F)c2-c2ccc(Cl)cc2)c(O)c1`, the result in assay [1] (time 5.0 day) was inactive. In general, MIC refers to the smallest concentration in the dilution series that meets the test's criterion for growth inhibition. A lower MIC goes with greater potency. As to `CCCCCCCCCCCC(=O)NS(=O)(=O)OC[C@H]1O[C@@H](n2cnc3c(N)ncnc32)[C@H](O)[C@@H]1O`, the minimal inhibitory concentration (MIC) came to 100 µM (≈ 52.9 µg/mL) in assay [2], 100 µM (≈ 52.9 µg/mL) in assay [3] and 215 µM (≈ 114 µg/mL) in assay [4].
